Results on two molecules are retold here after US20140187595A1 (INSERM (Institut National de la Sante et de la Recherche …, priority 2010, published 2014).

Data set [1] deals with splicing defects associated with myotonic dystrophy. As to conditions: Warf et al. 2009; cited from earlier work.
Another data set deals with DM1 myoblasts. The experiment in a line: Splicing in immortalized myoblasts from DM1 patients. It is filed as cell-based, human. The text has this: FIGS. 4A and 4B. Effects of AMPK activators on INSR splicing defect in immortalized myoblasts or freshly isolated peripheral blood lymphocytes (PBLs) from DM1 patients.
A further data set has as its system WT MPCs. The data set is described as follows: INSR and cTNT splicing in WT cells. In kind it is cell-based, human.
Data set [2] concerns cTNT splicing (±exon 5), pRG6 minigene. The experiment in a line: cTNT splicing (±exon 5) by RT-PCR in MPCs transfected with pRG6 minigene. It is filed as cell-based, human. As to conditions: 25 mM, DM1 MPCs. An excerpt: FIG. 1E cTNT splicing (±exon 5) in WT and DM1 MPCs cotransfected with the indicated expression vectors and the pSG (d) or pRG6 (e) minigenes respectively (means ±s.d., n=3).
TNNT2 (cTNT) was chosen because, opposite to INSR, abnormal splicing in DM1 leads to the inclusion of an exon (exon 5)^4. As TNNT2 is not expressed in MPCs, cells were transfected with the RG6 minigene^13 based upon the chicken orthologue.

Data set [3] concerns pre-mRNA splicing (Ank2, Capzb, INSR, Nfix, Alp). As to conditions: higher dose (600 mg/Kg/day), mouse heart.
Data set [4] in a line: Toxicity in mouse at end of metformin treatment. In kind it is in vivo, C57BL/6NCr1 mouse. As to conditions: 200 and 600 mg/Kg/day by gavage. The text has this:
Enhancement of Ank2 exon 21 and Capzb exon 8 inclusion, INSR exon 11 and Nfix exon […] exclusion or Alp exons 5a and 5b alternative splicing associated to a rescuing effect of DM1 missplicings in mouse skeletal muscle were observed.

For data set [5], the system named is INSR splicing (±exon 11) in DM1 MPCs. The experiment in a line: INSR splicing (±exon 11, INSR-A/INSR-B ratio) by quantitative PCR in DM1 MPCs. In kind it is cell-based, human.
Another data set relates to DM1 cells. The data set is described as follows: Toxicity on repeated daily treatment of DM1 cells. The following applies: 10 mM repeated daily for up to 10 days.

The structures appear in SMILES notation.

As to `N=C(N)c1ccc(OCCCCCOc2ccc(C(=N)N)cc2)cc1` [Pentamidine, pentamidine], the “splicing defects associated with myotonic dystrophy” value in data set [1] is on record as “reverses the splicing defects”.

`CN(C)C(=N)N=C(N)N` [metformin]: in the data set on DM1 myoblasts, the “INSR transcript exon 11” value was “exon 11 inclusion”, the “SERCA1 transcript exon 22” value is “exon 22 inclusion”, the “ZASP transcript exon 10” value was “exon 10 skipping” and the “endogenous human cTNT transcript exon 5” value was “exon 5 skipping”. For the same molecule, the “"MBNL1-related" splicing of the two genes (INSR, cTNT)” value in the data set with WT MPCs is “efficient in facilitating”. Also, the “exogenous cTNT splicing (±exon 5)” value in data set [2] is recorded as “decreased inclusion of exon 5”. The “exogenous cTNT splicing (±exon 5)” value in data set [2] (listed as Metformin) was “restores”. In addition, in data set [3], the “INSR exon 11 exclusion in the heart” value is “enhancement of INSR exon 11 exclusion was also observed”. The “toxicity at the end of the treatment period” value in data set [4] is “No sign of toxicity”. The “corrective effect on INSR splicing after repeated treatment” value in data set [5] (10 mM daily for up to 10 days) is listed as “maintained corrective effect”. The “INSR splicing (±exon 11) rescue” value in data set [5] (24 h-treatment, increasing concentrations) is “partially rescues”. Besides, the toxicity result in the data set on DM1 cells was “no observed toxicity”.
